Converted amounts (≈) assume the structure as drawn.
How the values were obtained:
Streptococcus pneumoniae [1] = assay: Antimicrobial activity against penicillin-susceptible Streptococcus pneumoniae by broth microdilution method; format: functional; conditions: Streptococcus pneumoniae
Klebsiella pneumoniae [2] = assay: Antimicrobial activity against Klebsiella pneumoniae assessed as susceptible isolate by broth microdilution method; format: functional
Pseudomonas aeruginosa [3] = assay: Antimicrobial activity against imipenem susceptible Pseudomonas aeruginosa by broth microdilution method; format: functional
Staphylococcus aureus = assay: Antimicrobial activity against methicillin-susceptible Staphylococcus aureus by broth microdilution method; format: functional
Proteus mirabilis [4] = assay: Antimicrobial activity against Non-ESBL Proteus mirabilis assessed as intermediate isolate by broth microdilution method; format: functional
Pseudomonas aeruginosa [5] = assay: Antimicrobial activity against Ceftazidime non-susceptible Pseudomonas aeruginosa assessed as intermediate isolate by broth microdilution method; format: functional
Citrobacter [6] = assay: Antimicrobial activity against Citrobacter with nonderepressed AmpC beta-lactamsae by broth microdilution method; format: functional
Pseudomonas aeruginosa [7] = assay: Antimicrobial activity against Pseudomonas aeruginosa by broth microdilution method; format: functional
Escherichia coli [8] = assay: Antimicrobial activity against Escherichia coli assessed as susceptible isolate by broth microdilution method; format: functional
Pseudomonas aeruginosa [9] = assay: Antimicrobial activity against Ceftazidime susceptible Pseudomonas aeruginosa by broth microdilution method; format: functional
Pseudomonas aeruginosa [10] = assay: Antimicrobial activity against Ceftazidime non-susceptible Pseudomonas aeruginosa assessed as resistant isolate by broth microdilution method; format: functional
Enterobacteriaceae [11] = assay: Antimicrobial activity against Enterobacteriaceae assessed as susceptible isolate by broth microdilution method; format: functional
Enterobacter cloacae [12] = assay: Antimicrobial activity against Enterobacter cloacae with nonderepressed AmpC beta-lactamsae assessed as intermediate isolate by broth microdilution method; format: functional
Enterobacteriaceae [13] = assay: Antimicrobial activity against Ceftazidime non-susceptible Enterobacteriaceae assessed as resistant isolate by broth microdilution method; format: functional
Acinetobacter [14] = assay: Antimicrobial activity against imipenem susceptible Acinetobacter by broth microdilution method; format: functional
Pseudomonas aeruginosa [15] = assay: Antimicrobial activity against Ceftazidime susceptible Pseudomonas aeruginosa assessed as intermediate isolate by broth microdilution method; format: functional
Proteus mirabilis [16] = assay: Antimicrobial activity against ESBL producing Proteus mirabilis by broth microdilution method; format: functional
Klebsiella pneumoniae [17] = assay: Antimicrobial activity against ESBL producing Klebsiella pneumoniae assessed as intermediate isolate by broth microdilution method; format: functional
Escherichia coli [18] = assay: Antimicrobial activity against ESBL producing Escherichia coli by broth microdilution method; format: functional
Citrobacter [19] = assay: Antimicrobial activity against Citrobacter with derepressed AmpC beta-lactamsae assessed as susceptible isolate by broth microdilution method; format: functional
Pseudomonas aeruginosa [20] = assay: Antimicrobial activity against imipenem non-susceptible Pseudomonas aeruginosa by broth microdilution method; format: functional
Acinetobacter [21] = assay: Antimicrobial activity against imipenem susceptible Acinetobacter assessed as intermediate isolate by broth microdilution method; format: functional
Serratia marcescens [22] = assay: Antimicrobial activity against Serratia marcescens by broth microdilution method; format: functional
Streptococcus pneumoniae [23] = assay: Antimicrobial activity against penicillin-resistant Streptococcus pneumoniae by broth microdilution method; format: functional
Proteus mirabilis [24] = assay: Antimicrobial activity against Non-ESBL Proteus mirabilis assessed as susceptible isolate by broth microdilution method; format: functional
Acinetobacter [25] = assay: Antimicrobial activity against Acinetobacter by broth microdilution method; format: functional
Citrobacter [26] = assay: Antimicrobial activity against Citrobacter with nonderepressed AmpC beta-lactamsae assessed as susceptible isolate by broth microdilution method; format: functional
Pseudomonas aeruginosa [27] = assay: Antimicrobial activity against Ceftazidime susceptible Pseudomonas aeruginosa assessed as susceptible isolate by broth microdilution method; format: functional
Enterobacteriaceae [28] = assay: Antimicrobial activity against Enterobacteriaceae by broth microdilution method; format: functional
Enterobacter cloacae [29] = assay: Antimicrobial activity against Enterobacter cloacae with nonderepressed AmpC beta-lactamsae assessed as susceptible isolate by broth microdilution method; format: functional
Klebsiella pneumoniae [30] = assay: Antimicrobial activity against Klebsiella pneumoniae by broth microdilution method; format: functional
Enterobacter cloacae [31] = assay: Antimicrobial activity against Enterobacter cloacae with derepressed AmpC beta-lactamsae by broth microdilution method; format: functional
Serratia marcescens [32] = assay: Antimicrobial activity against Ceftazidime non-susceptible Serratia marcescens by broth microdilution method; format: functional
Pseudomonas aeruginosa [33] = assay: Antimicrobial activity against imipenem susceptible Pseudomonas aeruginosa assessed as susceptible isolate by broth microdilution method; format: functional
Pseudomonas aeruginosa [34] = assay: Antimicrobial activity against Pseudomonas aeruginosa assessed as susceptible isolate by broth microdilution method; format: functional
Serratia marcescens [35] = assay: Antimicrobial activity against Serratia marcescens assessed as susceptible isolate by broth microdilution method; format: functional
Pseudomonas aeruginosa [36] = assay: Antimicrobial activity against Pseudomonas aeruginosa isolated from ICU patient assessed as resistant isolate by broth microdilution method
Serratia marcescens [37] = assay: Antimicrobial activity against Ceftazidime susceptible Serratia marcescens assessed as resistant isolate by broth microdilution method; format: functional
Pseudomonas aeruginosa [38] = assay: Antimicrobial activity against Pseudomonas aeruginosa isolated from patient by broth microdilution method
Escherichia coli [39] = assay: Antimicrobial activity against Escherichia coli by broth microdilution method; format: functional
Pseudomonas aeruginosa [40] = assay: Antimicrobial activity against Ceftazidime susceptible Pseudomonas aeruginosa assessed as resistant isolate by broth microdilution method; format: functional
Serratia marcescens [41] = assay: Antimicrobial activity against Ceftazidime susceptible Serratia marcescens by broth microdilution method; format: functional
Proteus mirabilis [42] = assay: Antimicrobial activity against Non-ESBL Proteus mirabilis by broth microdilution method; format: functional
Enterobacteriaceae [43] = assay: Antimicrobial activity against Ceftazidime non-susceptible Enterobacteriaceae assessed as susceptible isolate by broth microdilution method; format: functional
Escherichia coli [44] = assay: Antimicrobial activity against Non-ESBL Escherichia coli by broth microdilution method; format: functional
Citrobacter [45] = assay: Antimicrobial activity against Citrobacter by broth microdilution method; format: functional
Klebsiella pneumoniae [46] = assay: Antimicrobial activity against ESBL producing Klebsiella pneumoniae by broth microdilution method; format: functional
Citrobacter [47] = assay: Antimicrobial activity against Citrobacter assessed as susceptible isolate by broth microdilution method; format: functional
Enterobacteriaceae [48] = assay: Antimicrobial activity against ceftazidime-susceptible Enterobacteriaceae assessed as resistant isolate by broth microdilution method; format: functional
Enterobacter cloacae [49] = assay: Antimicrobial activity against Enterobacter cloacae with derepressed AmpC beta-lactamsae assessed as intermediate isolate by broth microdilution method; format: functional
Escherichia coli [50] = assay: Antimicrobial activity against ESBL producing Escherichia coli assessed as intermediate isolate by broth microdilution method; format: functional
Klebsiella pneumoniae [51] = assay: Antimicrobial activity against Non-ESBL Klebsiella pneumoniae by broth microdilution method; format: functional
Serratia marcescens [52] = assay: Antimicrobial activity against Ceftazidime susceptible Serratia marcescens assessed as intermediate isolate by broth microdilution method; format: functional
Pseudomonas aeruginosa [53] = assay: Antimicrobial activity against Ceftazidime non-susceptible Pseudomonas aeruginosa assessed as susceptible isolate by broth microdilution method; format: functional

Compound: C[C@@H](O)[C@H]1C(=O)N2C(C(=O)O)=C(S[C@@H]3CN[C@H](C(=O)N(C)C)C3)[C@H](C)[C@H]12 [MEROPENEM]
- MIC50 (Streptococcus pneumoniae [1]): ≤ 0.015 µg/mL
- Activity (Klebsiella pneumoniae [2]): 99.7%
- MIC50 (Pseudomonas aeruginosa [3]): 0.5 µg/mL (≈ 1.3 µM)
- MIC90 (Pseudomonas aeruginosa [3]): 2 µg/mL (≈ 5.22 µM)
- MIC50 (Staphylococcus aureus): 0.12 µg/mL (≈ 0.313 µM)
- MIC50 (Staphylococcus aureus; Staphylococcus aureus, read-out: MIC50): 0.06 µg/mL (≈ 0.156 µM)
- Activity (Proteus mirabilis [4]): 0%
- Activity (Pseudomonas aeruginosa [5]): 3.6%
- MIC50 (Citrobacter [6]): 0.06 µg/mL (≈ 0.156 µM)
- MIC90 (Citrobacter [6]): 0.06 µg/mL (≈ 0.156 µM)
- MIC50 (Pseudomonas aeruginosa [7]): 1 µg/mL (≈ 2.61 µM)
- MIC90 (Pseudomonas aeruginosa [7]): 16 µg/mL (≈ 41.7 µM)
- Activity (Escherichia coli [8]): 100%
- MIC50 (Pseudomonas aeruginosa [9]): 1 µg/mL (≈ 2.61 µM)
- MIC90 (Pseudomonas aeruginosa [9]): 8 µg/mL (≈ 20.9 µM)
- Activity (Pseudomonas aeruginosa [10]): 35.5%
- Activity (Enterobacteriaceae [11]): 99.8%
- Activity (Enterobacter cloacae [12]): 0.5%
- Activity (Enterobacteriaceae [13]): 1.3%
- MIC50 (Acinetobacter [14]): 1 µg/mL (≈ 2.61 µM)
- MIC90 (Acinetobacter [14]): 4 µg/mL (≈ 10.4 µM)
- Activity (Pseudomonas aeruginosa [15]): 4.7%
- MIC (Proteus mirabilis [16]): 0.12 µg/mL (≈ 0.313 µM)
- Activity (Klebsiella pneumoniae [17]): 0%
- MIC50 (Escherichia coli [18]): 0.06 µg/mL (≈ 0.156 µM)
- MIC90 (Escherichia coli [18]): 0.06 µg/mL (≈ 0.156 µM)
- Activity (Citrobacter [19]): 100%
- MIC50 (Pseudomonas aeruginosa [20]): 8 µg/mL (≈ 20.9 µM)
- MIC90 (Pseudomonas aeruginosa [20]): 32 µg/mL (≈ 83.4 µM)
- Activity (Acinetobacter [21]): 1.7%
- MIC50 (Serratia marcescens [22]): 0.12 µg/mL (≈ 0.313 µM)
- MIC90 (Serratia marcescens [22]): 0.25 µg/mL (≈ 0.652 µM)
- MIC50 (Streptococcus pneumoniae [23]): 1 µg/mL (≈ 2.61 µM)
- MIC50 (Streptococcus pneumoniae [23]; Streptococcus pneumoniae, read-out: MIC50): 1 µg/mL (≈ 2.61 µM)
- Activity (Proteus mirabilis [24]): 100%
- MIC50 (Acinetobacter [25]): 1 µg/mL (≈ 2.61 µM)
- MIC90 (Acinetobacter [25]): > 32 µg/mL
- Activity (Citrobacter [26]): 100%
- Activity (Pseudomonas aeruginosa [27]): 88.8%
- MIC50 (Enterobacteriaceae [28]): 0.06 µg/mL (≈ 0.156 µM)
- MIC90 (Enterobacteriaceae [28]): 0.12 µg/mL (≈ 0.313 µM)
- Activity (Enterobacter cloacae [29]): 99.5%
- MIC50 (Klebsiella pneumoniae [30]): 0.06 µg/mL (≈ 0.156 µM)
- MIC90 (Klebsiella pneumoniae [30]): 0.06 µg/mL (≈ 0.156 µM)
- MIC50 (Enterobacter cloacae [31]): 0.25 µg/mL (≈ 0.652 µM)
- MIC90 (Enterobacter cloacae [31]): 0.5 µg/mL (≈ 1.3 µM)
- MIC50 (Serratia marcescens [32]): 0.25 µg/mL (≈ 0.652 µM)
- MIC90 (Serratia marcescens [32]): 0.25 µg/mL (≈ 0.652 µM)
- Activity (Pseudomonas aeruginosa [33]): 98.5%
- Activity (Pseudomonas aeruginosa [34]): 85.3%
- Activity (Serratia marcescens [35]): 99.2%
- Activity (Pseudomonas aeruginosa [36]): 18%
- Activity (Serratia marcescens [37]): 0.8%
- Activity (Pseudomonas aeruginosa [38]): 3.7%
- MIC50 (Escherichia coli [39]): 0.03 µg/mL (≈ 0.0782 µM)
- MIC90 (Escherichia coli [39]): 0.06 µg/mL (≈ 0.156 µM)
- Activity (Pseudomonas aeruginosa [40]): 6.5%
- MIC50 (Serratia marcescens [41]): 0.12 µg/mL (≈ 0.313 µM)
- MIC90 (Serratia marcescens [41]): 0.25 µg/mL (≈ 0.652 µM)
- MIC50 (Proteus mirabilis [42]): 0.12 µg/mL (≈ 0.313 µM)
- MIC90 (Proteus mirabilis [42]): 0.25 µg/mL (≈ 0.652 µM)
- Activity (Enterobacteriaceae [43]): 98%
- MIC50 (Escherichia coli [44]): 0.03 µg/mL (≈ 0.0782 µM)
- MIC90 (Escherichia coli [44]): 0.06 µg/mL (≈ 0.156 µM)
- MIC50 (Citrobacter [45]): 0.06 µg/mL (≈ 0.156 µM)
- MIC90 (Citrobacter [45]): 0.12 µg/mL (≈ 0.313 µM)
- MIC50 (Klebsiella pneumoniae [46]): 0.06 µg/mL (≈ 0.156 µM)
- MIC90 (Klebsiella pneumoniae [46]): 0.25 µg/mL (≈ 0.652 µM)
- Activity (Citrobacter [47]): 100%
- Activity (Enterobacteriaceae [48]): 0.1%
- Activity (Enterobacter cloacae [49]): 0%
- Activity (Escherichia coli [50]): 0%
- MIC50 (Klebsiella pneumoniae [51]): 0.06 µg/mL (≈ 0.156 µM)
- MIC90 (Klebsiella pneumoniae [51]): 0.06 µg/mL (≈ 0.156 µM)
- Activity (Serratia marcescens [52]): 0%
- Activity (Pseudomonas aeruginosa [53]): 60.9%

Source: ChEMBL document CHEMBL1275550, “In vitro activity of doripenem, a carbapenem for the treatment of challenging infections caused by gram-negative bacteria, against recent clinical isolates from the United States” (2008)
